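These data come from cells grown in 96-well plates and exposed to compound for 48 hours at five concentrations. Definition used: TGI = concentration required for complete inhibition of growth.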
Columns and labels:
Assay in all cases: growth of human tumour cells (NCI), 48 h
[1] = test system: NCI/ADR-RES ovarian
[2] = test system: CAKI-1 renal
[3] = test system: UO-31 renal
[4] = test system: COLO 205 colon
[5] = test system: SK-OV-3 ovarian
[6] = test system: SK-MEL-28 melanoma
[7] = test system: SNB-19 CNS
[8] = test system: UACC-257 melanoma
[9] = test system: SK-MEL-5 melanoma
[10] = test system: HCT-116 colon
[11] = test system: SNB-75 CNS
[12] = test system: SF-539 CNS
[13] = test system: M14 melanoma
[14] = test system: SW-620 colon
[15] = test system: OVCAR-8 ovarian
[16] = test system: SF-295 CNS
[17] = test system: MCF7 breast
[18] = test system: NCI-H460 lung
[19] = test system: MALME-3M melanoma
[20] = test system: OVCAR-4 ovarian

Measured: TGI

CCOC(=O)C(O)(NC(=O)Nc1ccc(F)cc1)C(F)(F)F (stereo not given)
> 100 µM: [1] | [2] | [3] | [4] | [5] | [6] | [7] | [8] | [9] | [10] | [11] | [12] | [13] | [14] | [15]

CCOC(=O)C(NC(=O)NC(C(=O)OCC)C(=O)OCC)C(=O)OCC
> 100 µM: [1] | [2] | [16] | [3] | [5] | [6] | [17] | [7] | [9] | [10] | [12] | [18] | [19] | [13] | [14] | [15]

CO[C@@H](c1ccccc1)[C@H](O)[C@](O)(c1ccccc1)P(=O)(OC)OC
> 100 µM: [1] | [2] | [16] | [3] | [4] | [5] | [6] | [7] | [8] | [9] | [10] | [20] | [11] | [12] | [18] | [19] | [13] | [14] | [15]

COc1ccc(C2NC3=C(CCCC3)C3(C#N)C(=O)N=C(N)C23C#N)cc1 (stereo not given)
> 100 µM: [1] | [2] | [16] | [3] | [4] | [5] | [6] | [17] | [7] | [8] | [9] | [10] | [20] | [18] | [19] | [13] | [14] | [15]

O=[N+]([O-])c1nccn1CC1OC(n2ccnc2[N+](=O)[O-])C(O)C(O)C1O (stereo not given)
> 100 µM: [3] | [4] | [6] | [17] | [7] | [8] | [9] | [10] | [11] | [18] | [19] | [13] | [14] | [15]

CC(Oc1ccc(OCC2CCCCC2)cc1)C(=O)N(CCO)CCO (stereo not given)
> 100 µM: [16] | [3] | [5] | [6] | [7] | [8] | [9] | [10] | [20] | [11] | [18] | [19] | [13] | [15]
39.8 µM: [12]

Cc1ccc(NC(=O)CC(=O)n2nc(C)c(N=Nc3ccc(S(=O)(=O)CCOS(=O)(=O)O)cc3)c2C)cc1
> 100 µM: [1] | [16] | [3] | [4] | [5] | [6] | [17] | [7] | [8] | [9] | [10] | [11] | [12] | [18] | [19] | [13] | [14] | [15]

CC(=O)O[C@]12CCC[C@H]1C1(O)C(O)CCC[C@H]12 (stereo not given in full)
> 100 µM: [16] | [3] | [4] | [5] | [6] | [7] | [8] | [9] | [10] | [20] | [11] | [18] | [19] | [13] | [14] | [15]

CC(CCc1ccc2c(c1)c(=N)c1ccc(N)cc1n2O)CC(C)(C)C (stereo not given)
3.63 µM: [8]
34 µM: [3]
3.01 µM: [9]
3.37 µM: [19]
3.19 µM: [2]
3.18 µM: [13]
7.29 µM: [16]
4.03 µM: [10]
3.58 µM: [6]
3.07 µM: [14]
2.79 µM: [4]

Cc1cc(C)c(C)c(-n2[nH]c(=O)n(C)c2=O)c1C
> 100 µM: [1] | [2] | [16] | [3] | [4] | [5] | [6] | [17] | [7] | [8] | [9] | [10] | [12] | [18] | [13] | [14] | [15]

CN=C(N)N/N=C(\C)c1ccc2oc3ccc(/C(C)=N/NC(N)=NC)cc3c2c1
> 100 µM: [1] | [16] | [3] | [4] | [6] | [7] | [9] | [10] | [20] | [18] | [13] | [15]
83 µM: [2]
5.33 µM: [14]
74 µM: [5]
> 68.1 µM: [8]

OC(c1ccccc1)(c1ccccc1)c1cccnc1
> 100 µM: [2] | [16] | [3] | [4] | [5] | [6] | [7] | [8] | [9] | [10] | [20] | [11] | [12] | [18] | [19] | [13] | [14] | [15]

O=C1C(=O)N(C2CCCCC2)C(=S)N1C1CCCCC1
> 100 µM: [1] | [2] | [16] | [3] | [4] | [5] | [6] | [7] | [8] | [9] | [10] | [20] | [11] | [12] | [18] | [19] | [14] | [15]

Cc1cccc(Nc2cn(CCOc3ccccc3)c(=O)n(CCOc3ccccc3)c2=O)c1
> 100 µM: [2] | [16] | [3] | [4] | [6] | [17] | [7] | [8] | [9] | [10] | [20] | [18] | [13] | [14]
